Measured values from patent publication US12180207B2 (ARRAY BIOPHARMA INC., priority 2018, dated 2024).

How the values were obtained:
[1] = molecular target: dephosphorylated FGFR1 (SEQ ID NO: 1, amino acids 458 to 765) (Homo sapiens (Human), UniProt P11362); assay: FGFR enzyme binding assay (HTRF tracer displacement), FGFR1; settings: 5 nM dephosphorylated FGFR1, average of multiple determinations if made
Experimental: (§1) The potency of compounds inhibiting human isoforms of FGFR kinase was determined using Life Technologies' Homogeneous Time Resolved Fluorescence (HTRF)-based binding assay technology. […] After a 60 minute incubation at 22° C., the extent of tracer displacement was determined using a PerkinElmer EnVision multimode plate reader via HTRF dual wavelength detection, and the percent of control (POC) was calculated using a ratiometric emission factor. One hundred POC was determined using no test compound, and 0 POC was determined in the presence of 1 μM of an appropriate control inhibitor.

[2] = molecular target: phosphorylated FGFR3 (SEQ ID NO: 5, amino acids 449 to 759) (Homo sapiens (Human), UniProt P22607); assay: FGFR enzyme binding assay (HTRF tracer displacement), FGFR3; settings: 5 nM phosphorylated FGFR3, average of multiple determinations if made
Chain of phosphorylated FGFR3 (SEQ ID NO: 5, amino acids 449 to 759) (P22607 449-759): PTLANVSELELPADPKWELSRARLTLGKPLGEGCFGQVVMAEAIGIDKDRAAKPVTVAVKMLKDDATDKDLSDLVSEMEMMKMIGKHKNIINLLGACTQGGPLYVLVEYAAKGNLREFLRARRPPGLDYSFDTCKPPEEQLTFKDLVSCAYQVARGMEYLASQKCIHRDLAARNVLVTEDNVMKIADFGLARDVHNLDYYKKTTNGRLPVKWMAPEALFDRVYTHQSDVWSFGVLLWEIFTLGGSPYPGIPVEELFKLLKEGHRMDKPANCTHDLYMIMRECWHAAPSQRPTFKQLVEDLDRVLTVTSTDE
Experimental: as §1

[3] = molecular target: recombinant human FGFR1 catalytic domain (amino acids 308-731) (Homo sapiens (Human), UniProt P11362); assay: FGFR1 enzyme activity assay (LanthaScreen TR-FRET); assay type: biochemical; settings: 20 min incubation at 22° C., average of multiple determinations if made, read-out: FGFR1 Enz FRET IC50
Chain of recombinant human FGFR1 catalytic domain (amino acids 308-731) (P11362 other isoform, or with tags, fused parts or gaps): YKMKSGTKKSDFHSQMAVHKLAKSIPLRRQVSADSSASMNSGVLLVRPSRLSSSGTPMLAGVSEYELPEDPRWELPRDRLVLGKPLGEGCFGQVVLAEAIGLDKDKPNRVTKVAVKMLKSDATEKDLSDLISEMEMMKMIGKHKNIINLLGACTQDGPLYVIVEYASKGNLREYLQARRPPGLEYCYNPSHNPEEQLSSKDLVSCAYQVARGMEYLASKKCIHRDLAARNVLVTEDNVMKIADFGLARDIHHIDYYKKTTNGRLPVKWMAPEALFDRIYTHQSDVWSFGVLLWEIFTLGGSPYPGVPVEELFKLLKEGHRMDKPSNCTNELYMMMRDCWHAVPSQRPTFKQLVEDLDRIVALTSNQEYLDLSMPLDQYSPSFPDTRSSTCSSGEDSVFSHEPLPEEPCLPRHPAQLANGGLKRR
Experimental: FGFR1 kinase activity was measured by the Invitrogen LanthaScreen™ Assay technology which directly measures the amount of substrate phosphorylation by Time-resolved fluorescence energy transfer (TR-FRET) using a fluorescently-labeled peptide and Europium-labeled antibody. Briefly, […] His-tagged recombinant human FGFR1 catalytic domain (amino acids 308-731) (Life Technologies Cat. No. PR4660A) was incubated with 100 nM Alexa Fluor® 647-Poly-GT Peptide Substrate (Life Technologies Cat. No. PV5836) and […] ATP along with test compound in a buffer consisting of 250 mM HEPES, 25 mM MgCl2, 0.05% TritonX-100, pH 7.5, and 2% DMSO. […] After a 20 minutes incubation at 22° C., an equal volume of 2 nM LanthaScreen® Eu-PY20 Antibody (Life Technologies Cat. No. PV5691) and 10 mM EDTA was added to quench the kinase reaction and start the detection reaction. After an additional 60 minute incubation at 22° C., the reaction was measured using a PerkinElmer EnVision multimode plate reader via TR-FRET dual wavelength detection, and the percent of control (POC) calculated using a ratiometric emission factor. 100 POC was determined using no test compounds and 0 POC was determined using no enzyme. The POC values were fit to a 4-parameter logistic curve as a function of the concentration of the compound, and the IC50 value is the point where the curve crosses 50 POC.

[4] = molecular target: recombinant human FGFR2 cytoplasmic domain (amino acids 403-822) (Homo sapiens (Human), UniProt P21802); assay: FGFR2 enzyme activity assay (LanthaScreen TR-FRET); assay type: biochemical; settings: 15 μM ATP, 20 min incubation at 22° C., average of multiple determinations if made, read-out: FGFR2 Enz FRET IC50
Chain of recombinant human FGFR2 cytoplasmic domain (amino acids 403-822) (P21802 402-821): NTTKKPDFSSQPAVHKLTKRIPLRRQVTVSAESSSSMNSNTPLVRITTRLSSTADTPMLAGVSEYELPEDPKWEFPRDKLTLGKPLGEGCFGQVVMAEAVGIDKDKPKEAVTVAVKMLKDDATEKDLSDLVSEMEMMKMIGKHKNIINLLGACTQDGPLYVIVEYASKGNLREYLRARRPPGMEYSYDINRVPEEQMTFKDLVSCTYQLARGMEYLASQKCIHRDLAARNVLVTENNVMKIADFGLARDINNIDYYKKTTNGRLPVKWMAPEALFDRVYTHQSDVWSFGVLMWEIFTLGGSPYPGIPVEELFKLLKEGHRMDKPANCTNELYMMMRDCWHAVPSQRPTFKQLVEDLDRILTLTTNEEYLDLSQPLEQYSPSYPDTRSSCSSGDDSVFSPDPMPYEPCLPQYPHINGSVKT
Experimental: FGFR2 kinase activity was measured by the Invitrogen LanthaScreen™ Assay technology which directly measures the amount of substrate phosphorylation by TR-FRET using a fluorescently-labeled peptide and Europium-labeled antibody. Briefly, […] His-tagged recombinant human FGFR2 cytoplasmic domain (amino acids 403-822) (Life Technologies Cat. No. PR5332A) was incubated with 100 nM Alexa Fluor® 647-Poly-GT Peptide Substrate (Life Technologies Cat. No. PV5836) and 15 μM ATP along with test compound in a buffer consisting of 250 mM HEPES, 25 mM MgCl2, 0.05% TritonX-100, pH 7.5, and 2% DMSO. […] After a 20 minute incubation at 22° C., an equal volume of 2 nM LanthaScreen® Eu-PY20 Antibody (Life Technologies Cat. No. PV5691) and 10 mM EDTA were added to quench the kinase reaction and start the detection reaction. After an additional 60 minute incubation at 22° C., the reaction was measured using a PerkinElmer EnVision multimode plate reader via TR-FRET dual wavelength detection, and the percent of control (POC) calculated using a ratiometric emission factor. 100 POC was determined using no test compounds and 0 POC was determined using no enzyme. The POC values were fit to a 4-parameter logistic curve as a function of the concentration of the compound, and the IC50 value is the point where the curve crosses 50 POC.

[5] = molecular target: recombinant human FGFR3 (amino acids R397-T806) (Homo sapiens (Human), UniProt P22607); assay: FGFR3 enzyme activity assay (LanthaScreen TR-FRET); assay type: biochemical; settings: 25 μM ATP, 10 min incubation at 22° C., average of multiple determinations if made, read-out: FGFR3 Enz FRET IC50
Chain of recombinant human FGFR3 (amino acids R397-T806) (P22607 397-806): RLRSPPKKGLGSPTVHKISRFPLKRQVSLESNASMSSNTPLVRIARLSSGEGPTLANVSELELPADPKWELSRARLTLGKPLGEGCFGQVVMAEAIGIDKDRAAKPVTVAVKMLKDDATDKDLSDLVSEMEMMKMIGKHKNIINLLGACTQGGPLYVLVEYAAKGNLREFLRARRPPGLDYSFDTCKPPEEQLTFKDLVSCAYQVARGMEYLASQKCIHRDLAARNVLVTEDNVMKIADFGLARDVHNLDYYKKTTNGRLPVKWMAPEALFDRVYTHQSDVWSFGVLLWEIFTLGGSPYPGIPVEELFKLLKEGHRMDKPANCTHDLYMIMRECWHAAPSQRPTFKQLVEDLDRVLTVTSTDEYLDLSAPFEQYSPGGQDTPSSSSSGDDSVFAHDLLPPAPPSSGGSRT
Experimental: FGFR3 kinase activity was measured by the Invitrogen LanthaScreen™ Assay technology which directly measures the amount of substrate phosphorylation by TR-FRET using a fluorescently-labeled peptide and Europium-labeled antibody. Briefly, […] N-terminal GST-HIS6 fusion protein with a 3C cleavage site recombinant human FGFR3 (amino acids R397-T806) (ProQinase Cat. No. 1068-0000-1) was incubated with 100 nM Alexa Fluor® 647-Poly-GT Peptide Substrate (Life Technologies Cat. No. PV5836) and 25 μM ATP along with test compound in a buffer consisting of 250 mM HEPES, 25 mM MgCl2, 0.05% TritonX-100, pH 7.5, and 2% DMSO. […] After a 10 minute incubation at 22° C., an equal volume of 2 nM LanthaScreen® Eu-PY20 Antibody (Life Technologies Cat. No. PV5691) and 10 mM EDTA were added to quench the kinase reaction and start the detection reaction. After an additional 60 minute incubation at 22° C., the reaction was measured using a PerkinElmer EnVision multimode plate reader via TR-FRET dual wavelength detection, and the percent of control (POC) calculated using a ratiometric emission factor. 100 POC was determined using no test compounds and 0 POC was determined using no enzyme. The POC values were fit to a 4-parameter logistic curve as a function of the concentration of the compound, and the IC50 value is the point where the curve crosses 50 POC.

[6] = molecular target: FGFR3 (SEQ ID NO: 5, amino acids 449-759) (Homo sapiens (Human), UniProt P22607); assay: LC/MS FGFR3 kobs assay (covalent protein modification); assay type: binding; settings: 500 nM FGFR3, 3 μM compound
Chain of FGFR3 (SEQ ID NO: 5, amino acids 449-759) (P22607 449-759): as the sequence (P22607 449-759) above
Experimental: The LC/MS FGFR1 and FGFR3 kobs assays were conducted as follows. […] At each time point, the reaction was quenched with 20 μL of 0.4% formic acid. The extent of protein modification by each compound was determined by LC/MS on an Agilent Technologies 6520 Q-TOF LC/MS. Protein signals were then automatically deconvoluted using Agilent Masshunter software. Deconvoluted mass signals were exported to Tibco Spotfire data analysis program for further processing and normalization.
Data analysis included five steps. First, the signals for the “DMSO Controls” were analyzed to determine the percent of signal associated with unmodified FGFR1 or FGFR3 at each time point. Next, the percent of the signal associated with the covalent modification was determined. Third, the average nonmodified “DMSO Control” signal was used to normalize the modified protein signals at each time point. The percent of unmodified protein was fit to an exponential decay model where A0 is the Percent Unmodified at the start of the reaction, and kobs is the observed rate constant over the time period.
Table EC contains kobs values for compounds tested in these assays, presented as the average of multiple determinations if multiple determinations were made. ND=not determined.

Chain of dephosphorylated FGFR1 (SEQ ID NO: 1, amino acids 458 to 765) (P11362 458-765): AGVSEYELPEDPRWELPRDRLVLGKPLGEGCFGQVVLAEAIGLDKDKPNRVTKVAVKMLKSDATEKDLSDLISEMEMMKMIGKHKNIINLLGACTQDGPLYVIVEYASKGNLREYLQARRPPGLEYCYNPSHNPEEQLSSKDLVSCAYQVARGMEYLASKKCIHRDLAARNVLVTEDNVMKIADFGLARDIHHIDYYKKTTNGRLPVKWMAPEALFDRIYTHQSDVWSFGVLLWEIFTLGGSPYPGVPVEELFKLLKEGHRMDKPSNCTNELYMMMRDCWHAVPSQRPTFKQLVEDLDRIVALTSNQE

SMILES | IC50 [1] [nM] | IC50 [2] [nM] | IC50 [3] [nM] | IC50 [4] [nM] | IC50 [5] [nM] | FGFR3 Enz kobs [6] [min⁻¹]
C=CC(=O)N[C@H]1CC[C@H](C(=O)N2CCC(n3cc(-c4cc(OC)c5c(C#N)cnn5c4)cn3)CC2)CC1 [Example 18, N-((1r,4r)-4-(4-(4-(3-cyano-4-methoxypyrazolo[1,5-a]pyridin-6-yl)-1H-pyrazol-1-yl)piperidine-1-carbonyl)cyclohexyl)acryl-amide] | 131 | 26 | 18 | 4 | 2 | 0.0004
C=CC(=O)N[C@H]1CC[C@@H](C(=O)N2CCC(n3cc(-c4cc(OC)c5c(C#N)cnn5c4)cn3)CC2)CC1 [Example 20, N-((1s,4s)-4-(4-(4-(3-cyano-4-methoxypyrazolo[1,5-a]pyridin-6-yl)-1H-pyrazol-1-yl)piperidine-1-carbonyl)cyclohexyl)acryl-amide] | 93 | 18 | 14 | 3 | 3 | 0.00051
C=CC(=O)N1CCC(Oc2cccc(-n3cc(-c4cc(OC)c5c(C#N)cnn5c4)cn3)c2)CC1 [Example 26, 6-(1-(3-((1-acryloylpiperidin-4-yl)oxy)phenyl)-1H-pyrazol-4-yl)-4-methoxypyrazolo[1,5-a]pyridine-3-carbonitrile] | 552 | 128 | 188 | 42 | 58 | 0.0007
C=CC(=O)N[C@H]1C[C@@H](C(=O)N2CCC(n3cc(-c4cc(OC)c5c(C#N)cnn5c4)cn3)CC2)C1 [Example 44, N-((1s,3s)-3-(4-(4-(3-cyano-4-methoxypyrazolo[1,5-a]pyridin-6-yl)-1H-pyrazol-1-yl)piperidine-1-carbonyl)cyclobutyl)acryl-amide] | – | 20 | – | 3 | 2 | 0.001
C=CC(=O)N[C@H]1C[C@H](C(=O)N2CCC(n3cc(-c4cc(OC)c5c(C#N)cnn5c4)cn3)CC2)C1 [Example 45, N-((1r,3r)-3-(4-(4-(3-cyano-4-methoxypyrazolo[1,5-a]pyridin-6-yl)-1H-pyrazol-1-yl)piperidine-1-carbonyl)cyclobutyl)acryl-amide] | – | 44 | – | 9 | 8 | 0.00116
C=CC(=O)NC1C2CC1C2C(=O)N1CCC(n2cc(-c3cc(OC)c4c(C#N)cnn4c3)cn2)CC1 (stereo not shown) [Example 46, N-(4-(4-(4-(3-cyano-4-methoxypyrazolo[1,5-a]pyridin-6-yl)-1H-pyrazol-1-yl)piperidine-1-carbonyl)bicyclo[1.1.1]pentan-2-yl)acrylamide] | 23 | 4 | 12 | 2 | 3 | 0.00153
C=CC(=O)N1CCC(C(=O)N2CC[C@@H](n3cc(-c4cc(OC)c5c(C#N)cnn5c4)cn3)C2)CC1 [Example 53, (R)-6-(1-(1-(1-acryloylpiperidine-4-carbonyl)pyrrolidin-3-yl)-1H-pyrazol-4-yl)-4-methoxypyrazolo[1,5-a]pyridine-3-carbonitrile] | – | 31 | – | 7 | 3 | 0.00112
C=CC(=O)N[C@H]1CC[C@H](C(=O)N2CC[C@@H](n3cc(-c4cc(OC)c5c(C#N)cnn5c4)cn3)C2)CC1 [Example 54, N-((1R,4r)-4-((R)-3-(4-(3-cyano-4-methoxypyrazolo[1,5-a]pyridin-6-yl)-1H-pyrazol-1-yl)pyrrolidine-1-carbonyl)cyclohexyl)acryl-amide] | 142 | 25 | 47 | 16 | 16 | 0.00025
C=CC(=O)N[C@H]1C[C@H](C(=O)N2CC[C@@H](n3cc(-c4cc(OC)c5c(C#N)cnn5c4)cn3)C2)C1 [Example 60, N-((1R,3r)-3-((R)-3-(4-(3-cyano-4-methoxypyrazolo[1,5-a]pyridin-6-yl)-1H-pyrazol-1-yl)pyrrolidine-1-carbonyl)cyclobutyl)acryl-amide] | 203 | 32 | 31 | 7 | 7 | 0.00083
C=CC(=O)N[C@H]1C[C@@H](C(=O)N2CC[C@@H](n3cc(-c4cc(OC)c5c(C#N)cnn5c4)cn3)C2)C1 [Example 61, N-((1S,3s)-3-((R)-3-(4-(3-cyano-4-methoxypyrazolo[1,5-a]pyridin-6-yl)-1H-pyrazol-1-yl)pyrrolidine-1-carbonyl)cyclobutyl)acryl-amide] | 346 | 61 | 28 | 6 | 5 | 0.00064
C=CC(=O)N1CCC(C(=O)N2CC[C@H](n3cc(-c4cc(OC)c5c(C#N)cnn5c4)cn3)C2)CC1 [Example 62, (S)-6-(1-(1-(1-acryloylpiperidine-4-carbonyl)pyrrolidin-3-yl)-1H-pyrazol-4-yl)-4-methoxypyrazolo[1,5-a]pyridine-3-carbonitrile] | – | 64 | – | 5 | 2 | 0.00106
